Results reported in US6872541B2, “Method and compositions for analysis of pentraxin receptors as indicators of disease” (Coulter International Corp., priority 2001, dated 2005).
Where two headings read alike, the source gives them in different places. Blank lines part the entries; values can stand above or below the molecule they belong to.

What was measured:
[1] = target: CRP receptor (pentraxin-binding moiety) on human monocytes and myelomonocytic cell lines (human); assay: 50 µgs purified human SAP added before bCRP staining of peripheral blood monocytes, flow cytometry
[2] = target: CRP receptor (pentraxin-binding moiety) on human monocytes and myelomonocytic cell lines (human); assay: inhibition of bCRP (about 1 µg/mL) binding to THP-1 cells, flow cytometry, non-washed assay
PMN = settings: cited from earlier work
monocytes = settings: cited from earlier work
lymphocytes = settings: cited from earlier work
[3] = tested on: peripheral blood monocytes; assay: inhibition of bCRP binding to peripheral blood monocytes; settings: added before staining: 50 μgs CRP, 50 μgs SAP, 10 mM EDTA, 100 μgs PC, human IgG
Description: (§1) Normal peripheral blood and second sample peripheral blood samples were drawn into EDTA containing tubes, unless noted, and stored at room temperature. Blood was stained within 10 hours of collection. […] In addition the removal of the plasma and red cells allowed calcium to be incorporated into the buffer system without subsequent clotting. Lysis was accomplished either by adding a volume of 3 mL of ammonium chloride (Sigma) containing EDTA (Sigma) solution to each 100 μL whole blood for 10 minutes at room temperature or by using the automated T-QPrep Workstation with the ImmunoPrep Reagent System (Coulter Corporation). The ImmunoPrep Reagent System consists of an acid lyse, followed by neutralization and fixation. The lysed blood was centrifuged, the supernatant decanted and the remaining white cell pellet resuspended in 100 μL 0.01M HEPES (Sigma)—0.15M sodium chloride containing 2% Fetal Calf Serum and 2 mM calcium chloride (Sigma), pH 7.4 (HSFC). […] At the end of this time SA-DTAF at a 1:500 dilution (3.6 μg) and 10-20 μL of the appropriate antibody or isotype combination was added for an additional 15 minutes on ice. Cells were then washed with 3 mL HSFC, centrifuged and resuspended to 1 mL in HSFC (0.3% paraformaldehyde was added to ammonium chloride-lysed cells). Stained cells were kept on ice and analyzed within the hour.

THP-1 cells [4] = assay: inhibition of the binding of bCRP to THP-1 cells; design: species or system human; settings: for effect on binding of bCRP to THP-1 cells: washed assay, 5 mM EDTA in the primary incubation, PC inclusion or exclusion from the reaction mixture
Text: Staining proceeded using the previously determined optimal non-washed conditions. […] All other staining conditions were as previously described using bHSA as the control.

[5] = target: isolated human peripheral blood monocytes; settings: requirement for calcium, optimal pH 7.4; read-out: dissociation constant; cited from earlier work
MOLT-4 cells = settings: washed assay
Description: (§5) After 30 minutes on ice the exposed cells were either washed with 3 mL cold HFCS, centrifuged at 500×g for 3 minutes and resuspended in 100 μL cold HSFC, or left alone to compare washed and non-washed systems. Freshly diluted SA-DTAF in HSFC, 100 μL (9 μg SA-DTAF), was then added to the tubes and incubation proceeded for another 15 minutes on ice protected from light. The stained cells were washed using 3 mL cold HSFC, centrifuged at 500×g for 3 minutes and resuspended in 1 mL cold HSFC containing 0.3% paraformaldehyde (Sigma). Flow cytometric analysis was performed immediately.
(§6) The labeling reagent, SA-DTAF, was kept at a constant 1:200 dilution.
(§7) Target mean channels previously determined for cell lines stained with mouse IgG1-FITC were used to maintain consistency of values. The same fluorescent settings for FITC emission (LFL1) were used for all cell lines to enable direct comparison of median fluorescent intensities. […] Since cell lines consist of a relatively uniform population of cells, a Relative Fluorescent Index (RFI) comparing the level of fluorescence to the negative control was used as a more accurate representation of binding levels. The median value for the peak fluorescence (MdX) was used in place of the mean fluorescence intensity so that any skewed population shifts would be captured. […]

[6] = tested on: T cell populations (CD4+ or CD8+); settings: lymphocyte scatter
Description: as §1, with “Cells were then washed with 3 mL HSFC, centrifuged and resuspended to 1 mL in HSFC (0.3% paraformaldehyde was added to ammonium chloride-lysed cells).” left out, “hour. […]” for “hour.”
(§2) A total of six different normal blood samples were drawn, three individual donors on two separate occasions, and evaluated within 30-60 minutes of collection. […]

[7] = tested on: Granulocytes (CD13+ or CD16+); settings: gated by scatter and CD13+ or CD16+
Description: as §1, with “Cells were then washed with 3 mL HSFC, centrifuged and resuspended to 1 mL in HSFC (0.3% paraformaldehyde was added to ammonium chloride-lysed cells).” left out, “hour. […]” for “hour.”
as §2

U937 cells = assay: flow cytometric ligand binding assay of bCRP:SA-DTAF on cell lines; design: species or system human; settings: washed assay
Description: (§3) Flow cytometric analysis was performed immediately.

Daudi cells = assay: as above; design: species or system human; settings: washed assay
Description: as §3

Raji cells = assay: as above; design: species or system human
Description: as §3

KG-1a cells = assay: as above; design: species or system human; settings: washed assay
Description: as §3

HL-60 cells = assay: flow cytometric ligand binding assay of bCRP:SA-DTAF on untreated, DMSO- or PMA-induced cells; design: species or system human
Description: as §3
HL-60 was induced towards either the granulocyte or monocyte pathway with DMSO or phorbol-12-myristate-13-acetate (PMA), respectively. To induce the myelocyte differentiation pathway of HL-60 cells into mature myelocytes or monocytes, a concentration of 1.2% DMSO (Baxter Research, Midvale, Utah) included in the media was added to 2.5×10^5 cells/mL for 6 to 14 days. Monocyte differentiation of HL60 cells was promoted by exposing 5×10^5 cells/mL to 16 nM PMA for 48-72 hours prior to harvest. Untreated cells were always harvested along with the treated cells on the day of testing. A control using the same concentration of PMA dissolution media (DMSO) was also monitored. Viability of cells was determined by trypan blue exclusion and was always greater than 95% except for PMA treated cells that consistently were at 84% due to removal of the adherent cells from the flask via scraping. Prior to staining, the cells were washed with 10 mM HEPES, 150 mM sodium chloride buffer, pH 7.4 containing 0.01% sodium azide, 2% heat-inactivated fetal calf serum and 2 mM calcium chloride (HSFC) and resuspended to 1×10^7 cells/mL.

[8] = tested on: peripheral blood monocytes; assay: flow cytometric binding of bCRP:SA-DTAF to peripheral blood monocytes; design: species or system human
Description: (§4) Blood was stained within 10 hours of collection.
This concentration was used for all subsequent staining. Freshly drawn blood was evaluated within 30 to 60 minutes of collection and examined with specific markers identifying cell populations to ensure that the receptor binding pattern was similar to that obtained up to 10 hours later.
To ensure that enough monocytes were collected for the analysis stop counts were set to collect at least 1000 monocyte events based on forward and side scatter parameters.
Two individual donors were evaluated each day. The concentration of SA-DTAF was kept constant at a 1:500 dilution in HSFC (3.6 μgs). Peripheral blood monocyte binding was used to determine the optimal concentration. The percent positive values were expressed relative to the 2% cursor placed on the same population stained with the bHSA negative control. The choice of a 2% negative cursor instead of the RFI was made since a subset population was suspected due to the appearance of both a positive and negative stained monocyte population.
Single color, two or three-color staining was used along with monocyte forward and side scatter parameters to enumerate the percentage of positively stained cells. A negative staining control, bHSA:SA-DTAF was always run to establish the negative cursor placement. […] The samples were then evaluated for any differences in result due to gender, ethnic origin or age. […] No significant pattern or correlation was observed between the ages of 24 to 65 years and the binding of CRP to monocytes.

THP-1 cells [9] = tested on: THP-1 cells
Description: as §5, §6, §7

NK cells (CD56+CD16+) = assay: three color flow cytometric analysis of bCRP binding in fresh peripheral blood; design: species or system human; settings: lymphocyte scatter
Description: as §4

[10] = target: CRP receptor (pentraxin-binding moiety) on human monocytes and myelomonocytic cell lines (human); assay: 50 µgs purified CRP added before bCRP staining of peripheral blood monocytes, flow cytometry

percent inhibition [1]: 77% | IC50 [2]: 0.15 nM
Molecule: human Serum Amyloid P (from UniProt P02743 20-223) (ligand)

Molecule: aggregated CRP: aggregated CRP of a prior report (Zeller et al., 1986)
percent of cells binding (PMN; PMN stimulated with PMA): 93% | percent of cells binding (PMN; resting PMN): approximately 36% | percent of cells binding (monocytes; monocytes): 70% | percent of cells binding (lymphocytes): 8%

Molecule: C[N+](C)(C)CCOP(=O)(O)O [PC, phosphorylcholine, reference compound]
inhibition of bCRP binding to peripheral blood monocytes [3]: ~1% | effect on binding of bCRP to THP-1 cells (THP-1 cells [4]): no significant difference

IC50 [2]: 0.0087 nM
Molecule: Limulus CRP (from UniProt P06205 25-242) (ligand)

Molecule: radiolabeled CRP: radiolabeled CRP of a prior report (Ballou et al., 1989)
Kd [5]: ~100 nM

inhibition of bCRP binding to peripheral blood monocytes [3]: ~98%
Molecule: O=C(O)CN(CCN(CC(=O)O)CC(=O)O)CC(=O)O [EDTA, reference compound]
effect on binding of bCRP to THP-1 cells (THP-1 cells [4]): abolished

inhibition of bCRP binding to peripheral blood monocytes [3]: ~86%
Molecule: CRP: purified human C-reactive protein, pentameric pentraxin of 206 amino acid subunits (SEQ ID NO: 2), used unlabeled as inhibitor
point at which 50% of the binding was inhibited (amount) (THP-1 cells [4]; non-washed assay, bCRP approximately 1 μg/mL): 0.72 μgs

binding of bCRP ([8]; monocyte subset, dual CD14+CD16+): bound very little bCRP | normal range of CRP binding by monocytes ([8]; normal donors): 49-90% | percentage of binding (monocytes) ([8]; one-step bCRP:SA-DTAF complex): 84.6% | average percent positive values of bCRP binding, monocytes gated by light scatter ([8]; six freshly drawn normal donors, 30-60 minutes after collection): approximately 70% | percentage of binding (monocytes) ([8]; two-step method with wash after primary incubation): 85.8%
Molecule: bCRP: purified human C-reactive protein labeled with biotin, detected with streptavidin conjugated fluorescein derivative (SA-DTAF)
RFI (Relative Fluorescent Index, bCRP MdX / bHSA MdX) (MOLT-4 cells): under 0.9 | binding of bCRP vs negative bHSA control [6]: no binding of bCRP above that of the negative control | binding of bCRP vs negative bHSA control [7]: no binding of bCRP above that of the negative control | average percent of monocytes binding (monocytes; other reports): 67±12% | RFI (Relative Fluorescent Index, bCRP MdX / bHSA MdX) (U937 cells): 1.3 | RFI (Relative Fluorescent Index, bCRP MdX / bHSA MdX) (Daudi cells): under 0.9 | binding (in words) (Raji cells; B cell line Raji): No binding | RFI (Relative Fluorescent Index, bCRP MdX / bHSA MdX) (Raji cells; washed assay, Raji): under 0.9 | RFI (Relative Fluorescent Index, bCRP MdX / bHSA MdX) (KG-1a cells): 1.2 | RFI (HL-60 cells; CTL: HL-60 control for PMA-treated cells (same dilution of DMSO as PMA solvent)): 0.7 | RFI (HL-60 cells; DMSO-treated HL-60): 1.0 | RFI (HL-60 cells; HL-60 treated with PMA, 48 hours (PMA-48)): 1.2 | RFI (HL-60 cells; HL-60 treated with PMA, 72 hours (PMA-72)): 1.5 | RFI (HL-60 cells; untreated HL60): 0.6 | binding to cells (HL-60 cells; untreated or DMSO-treated HL-60 cells, washed and no-wash systems): negative | binding of bCRP vs negative bHSA control ([8]; monocytes selected by scatter and CD13, CD14 or CD33): definite fluorescent signal above that of the negative control | RFI (THP-1 cells [9]; THP-1 run at the same time as positive control for the HL-60 induction experiment): 25.1 | RFI (Relative Fluorescent Index, bCRP MdX / bHSA MdX) (THP-1 cells [9]; washed assay, THP-1): 14.5 | binding of bCRP vs negative bHSA control (NK cells (CD56+CD16+)): no binding of bCRP above that of the negative control

Molecule: CRP fragment 174-185: defined fragment of CRP, amino acid residues 174-185 of SEQ ID NO: 2 (Sigma) (IYLGGPFSPNVL; human CRP)
inhibition of bCRP binding to THP-1 cells (in words) (THP-1 cells [4]; non-washed assay, fragment 174-185 at 100 μgs (˜128 M solution), not repeated, other fragments up to 200 μgs): appeared to suppress the reaction

inhibition of bCRP binding to peripheral blood monocytes [3]: ~77%
Molecule: human SAP: another pentraxin, human Serum Amyloid P, >99% purity

percent inhibition [10]: 86%
B1: purified human C-reactive protein (ligand)
chain: QTDMSRKAFVFPKESDTSYVSLKAPLTKPLKAFTVCLHFYTELSSTRGYSIFSYATKRQDNEILIFWSKDIGYSFTVGGSEILFEVPEVTVAPVHICTSWESASGIVEFWVDGKPRVRKSLKKGYTVGAEASIILGQEQDSFGGNFEGSQSLVGDIGNVNMWDFVLSPDEINTIYLGGPFSPNVLNWRALKYEVQGEVFTKPQLWP
